{"source": "paper PMC9553116", "about": "(The Journal of Pharmacology and Experimental Therapeutics, 2022)", "molecular_target": "T1, MFN2 (FRET-MFN2) (Homo sapiens, UniProt O95140)", "T1 sequence (O95140 1-757)": "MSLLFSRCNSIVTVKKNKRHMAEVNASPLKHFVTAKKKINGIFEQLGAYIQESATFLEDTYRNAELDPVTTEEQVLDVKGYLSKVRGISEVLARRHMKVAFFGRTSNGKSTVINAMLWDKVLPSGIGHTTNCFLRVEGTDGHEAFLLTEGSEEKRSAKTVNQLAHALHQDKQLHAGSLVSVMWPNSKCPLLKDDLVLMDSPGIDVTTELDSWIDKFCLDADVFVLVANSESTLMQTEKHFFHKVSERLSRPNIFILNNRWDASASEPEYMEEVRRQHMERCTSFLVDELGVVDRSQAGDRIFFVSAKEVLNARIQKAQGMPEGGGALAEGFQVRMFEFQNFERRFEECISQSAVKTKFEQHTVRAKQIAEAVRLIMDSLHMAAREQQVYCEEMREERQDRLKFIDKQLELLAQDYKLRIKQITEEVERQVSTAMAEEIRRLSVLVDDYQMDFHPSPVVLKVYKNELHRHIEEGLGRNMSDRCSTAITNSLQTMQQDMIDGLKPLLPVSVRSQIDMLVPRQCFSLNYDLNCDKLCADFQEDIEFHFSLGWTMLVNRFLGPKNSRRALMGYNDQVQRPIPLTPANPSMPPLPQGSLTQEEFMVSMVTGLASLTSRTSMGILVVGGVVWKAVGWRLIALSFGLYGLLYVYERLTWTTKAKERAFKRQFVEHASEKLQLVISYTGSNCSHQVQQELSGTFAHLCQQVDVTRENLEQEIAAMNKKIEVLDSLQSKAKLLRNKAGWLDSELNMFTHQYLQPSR", "test": "Cerulean/Venus FRET of MFN2 conformation, isolated mitochondria", "assay_type": "biochemical", "settings": "1 uM compound, 4 h, room temperature, pH 7.4; allosteric"}
{"smiles": "O=C(CCCCCc1ccccc1)N[C@H]1CC[C@H](O)CC1", "note": "[trans-MiM111, N-(trans-4-Hydroxycyclohexyl)-6-phenylhexanamide]", "values": [{"measurement": "FRET", "value": "trans-MiM111 and CPR1-B promoted a relaxed WT MFN2 conformation"}]}
